Like-named read-outs stand apart in the source and are kept apart here.
Tests used:
[1] = Stability experiments for solid forms of Compound 1 (temperature and humidity, XRPD); assay type: physicochemical
Description: The physical stability of polymorph Form A was characterized. […] Samples of Form A exposed to 53, 75, and 85% relative humidity at ambient temperature (10 days) were also unchanged, as determined by XRPD.
The physical stability of polymorph Form B was characterized.
The physical stability of the amorphous material was characterized.

[2] = system: Pseudoperonospora cubensis; assay: Test J: cucumber downy mildew, spray before inoculation, cucumber seedlings, mixtures with Colby expected values; assay type: in vivo; conditions: Table C
Description: General protocol for preparing test compositions for Tests I-K: Amisulbrom was formulated and ametoctradin was obtained as unformulated, technical-grade materials. Compound 1 were formulated as an oil dispersion containing a mixture of POE (polyoxyethylene) 40 sorbitol hexaoleate, POE 20 sorbitan trioleate, and alkyl-peg resin surfactants in a liquid carrier consisting of a distilled C18 fatty acid methyl ester. Ametoctradin was first dissolved in acetone and then suspended at the desired concentration (in ppm) in acetone and purified water (50/50 mix by volume) containing 250 ppm of the surfactant Trem® 014 (polyhydric alcohol esters). Amisulbrom was dispersed in sufficient water to give the desired concentration, and neither organic solvent nor surfactant was added to the suspension. The resulting test mixtures were then used in Tests I-K. Spraying a 200 ppm test mixture to the point of run-off on the test plants was the equivalent of a rate of 800 g/ha. The tests were replicated three times and the results reported as the mean average of the three replicates.
The presence of a synergistic effect between two active ingredients was established with the aid of the Colby equation (see Colby, S. R. “Calculating Synergistic and Antagonistic Responses of Herbicide Combinations”, Weeds, (1967), 15, 20-22):
Using the method of Colby, the presence of a synergistic interaction between two active ingredients is established by first calculating the predicted activity, p, of the mixture based on activities of the two components applied alone. If p is lower than the experimentally established effect, synergism has occurred. In the equation above, A is the fungicidal activity in percentage control of one component applied alone at rate x. The B term is the fungicidal activity in percentage control of the second component applied at rate y. The equation estimates p, the expected fungicidal activity of the mixture of A at rate x with B at rate y if their effects are strictly additive and no interaction has occurred.
The test mixture was sprayed to the point of run-off on cucumber seedlings. The following day the seedlings were inoculated with a spore suspension of Pseudoperonospora cubensis (the causal agent of cucumber downy mildew) and incubated in saturated atmosphere at 20° C. for 24 h, and moved to a growth chamber at 20° C. for 6 days, after which time disease ratings were made.
Results for Tests I to K are given in Tables C-E. Each table corresponds to a set of evaluations performed together at the same time. In each table, a rating of 100 indicates 100% disease control and a rating of 0 indicates no disease control (relative to the controls). Columns labeled “Obsd” indicate the average of results observed from three replications. Columns labeled “Exptd” indicate the expected value for each treatment mixture using the Colby equation.

[3] = system: Phytophthora infestans; assay type: in vivo; conditions: Table E
[4] = system: Phytophthora infestans; assay type: in vivo
[5] = Relative stability experiments for polymorph Form A and Form B (DSC heat of fusion rule, competitive interconversion); assay type: physicochemical
Method: Differential scanning calorimetry was performed on a Thermal Analysis Q2000 Differential Scanning Calorimeter. A sample (2.3 mg) was placed in an aluminum DSC pan. The sample cell was heated under a nitrogen purge at 10° C./minute. Indium metal was used as the calibration standard.
The relative stability of polymorphic Forms A and B of Compound 1 was characterized with Differential Scanning Calorimetry and a competitive interconversion experiment. Phase transitions of solids can be thermodynamically reversible or irreversible. Crystalline polymorphs which transform reversibly at a specific transition temperature (Ttr) are called enantiotropic polymorphs. If the crystalline polymorphs are not interconvertable, the system is monotropic (i.e. one polymorph is thermodynamically stable relative to the other over the entire temperature range up to melting). The relationship between forms can be determined by the application of the heat of fusion rule (Burger, A.; Ramberger, R. Mikrochim. Acta [Wein], 1979 II, 259-271). The rule states that if the higher melting form has the lower heat of fusion, then the two forms are enantiotropic. Otherwise, they are monotropic.
To support this conclusion, a competitive interconversion experiment between polymorph Forms A and B was performed in ethanol at room temperature. […]

[6] = Table C, component (b) alone 0.08 ppm
[7] = Table C, component (b) alone 0.4 ppm
[8] = Table C, component (b) alone 2 ppm
[9] = Table C, component (b) alone 10 ppm
[10] = Table C, component (b) alone 40 ppm
[11] = Table D, component (b) alone 0.08 ppm
[12] = Table D, component (b) alone 0.4 ppm
[13] = Table D, component (b) alone 2 ppm
[14] = Table D, component (b) alone 10 ppm

| Structure (SMILES) | stability of the pure solid form (summary of Characterization Example 4) [1] | Test J Obsd ([2]; component (b) alone 0.08 ppm) [%] | Test J Obsd ([2]; component (b) alone 0.4 ppm) [%] | Test J Obsd ([2]; component (b) alone 2 ppm) [%] | Test J Obsd ([2]; component (b) alone 10 ppm) [%] | Test J Obsd ([2]; component (b) alone 40 ppm) [%] | Test K Obsd ([3]; component (b) alone 0.4 ppm) [%] | Test K Obsd ([3]; component (b) alone 2 ppm) [%] | Test K Obsd ([3]; component (b) alone 10 ppm) [%] | Test K Obsd ([3]; component (b) alone 40 ppm) [%] | Test K Obsd ([3]; component (b) alone 200 ppm) [%] | Test I Obsd [4, 6] [%] | Test I Obsd [4, 7] [%] | Test I Obsd [4, 8] [%] | Test I Obsd [4, 9] [%] | Test I Obsd [4, 10] [%] | Test I Obsd [4, 11] [%] | Test I Obsd [4, 12] [%] | Test I Obsd [4, 13] [%] | Test I Obsd [4, 14] [%] | also measured |
| --- | --- | --- | --- | --- | --- | --- | --- | --- | --- | --- | --- | --- | --- | --- | --- | --- | --- | --- | --- | --- | --- |
| Cc1cc(C(F)(F)F)nn1CC(=O)N1CCC(c2nc(C3=NOC(c4c(F)cccc4F)C3)cs2)CC1 (racemic) [polymorph Form A, 1-[4-[4-[5-(2,6-difluorophenyl)-4,5-dihydro-3-isoxazolyl]-2-thiazolyl]-1-piperidinyl]-2-[5-methyl-3-(trifluoromethyl)-1H-pyrazol-1-yl]ethanone] | physically stable and non-hydrated | – | – | – | – | – | – | – | – | – | – | – | – | – | – | – | – | – | – | – | physical stability by XRPD ([1]; exposed to 53, 75, and 85% relative humidity at ambient temperature (10 days)): unchanged; physical stability by XRPD ([1]; maintained at 40, 60, and 80° C. for 4 days): remained unchanged |
| Cc1c(Br)c2ccc(F)cc2n1S(=O)(=O)c1ncn(S(=O)(=O)N(C)C)n1 [Amisulbrom, amisulbrom] | – | 0 | 0 | 95 | 100 | 100 | 0 | 0 | 0 | 0 | 0 | 57 | 52 | 82 | 100 | 100 | 9 | 63 | 85 | 86 | Test I Obsd ([4]; Table D, component (b) alone 0.016 ppm): 0% |
| Cc1cc(C(F)(F)F)nn1CC(=O)N1CCC(c2nc(C3=NOC(c4c(F)cccc4F)C3)cs2)CC1 (stereo not drawn) [Amorphous Compound 1, 1-[4-[4-[5-(2,6-difluorophenyl)-4,5-dihydro-3-isoxazolyl]-2-thiazolyl]-1-piperidinyl]-2-[5-methyl-3-(trifluoromethyl)-1H-pyrazol-1-yl]ethanone] | stable and non-hydrated | – | – | – | – | – | – | – | – | – | – | – | – | – | – | – | – | – | – | – | physical stability by XRPD ([1]; elevated temperatures (60, 80 and 100° C.) and humidities (75 and 85% relative humidity) for 10-12 days): remained unchanged |
| Cc1cc(C(F)(F)F)nn1CC(=O)N1CCC(c2nc(C3=NOC(c4c(F)cccc4F)C3)cs2)CC1 (racemic) [Compound 1, 1-[4-[4-[5-(2,6-difluorophenyl)-4,5-dihydro-3-isoxazolyl]-2-thiazolyl]-1-piperidinyl]-2-[5-methyl-3-(trifluoromethyl)-1H-pyrazol-1-yl]ethanone] | – | – | – | – | – | – | – | – | – | – | – | – | – | – | – | – | – | – | – | – | Test J Obsd ([2]; Compound 1 alone 0.00001 ppm): 17%; Test J Obsd ([2]; Compound 1 alone 0.0001 ppm): 47%; Test J Obsd ([2]; Compound 1 alone 0.001 ppm): 40%; Test J Obsd ([2]; Compound 1 alone 0.01 ppm): 94%; Test J Obsd ([2]; Compound 1 alone 0.1 ppm): 100%; Test K Obsd ([3]; Compound 1 alone 0.001 ppm): 0%; Test K Obsd ([3]; Compound 1 alone 0.01 ppm): 17%; Test K Obsd ([3]; Compound 1 alone 0.1 ppm): 80%; Test K Obsd ([3]; Compound 1 alone 1 ppm): 99%; Test K Obsd ([3]; Compound 1 alone 10 ppm): 100%; Test I Obsd ([4]; Table C, Compound 1 alone 0.00001 ppm): 39%; Test I Obsd ([4]; Table C, Compound 1 alone 0.0001 ppm): 63%; Test I Obsd ([4]; Table C, Compound 1 alone 0.001 ppm): 72%; Test I Obsd ([4]; Table C, Compound 1 alone 0.01 ppm): 100%; Test I Obsd ([4]; Table C, Compound 1 alone 0.1 ppm): 100%; Test I Obsd ([4]; Table D, Compound 1 alone 0.00001 ppm): 0%; Test I Obsd ([4]; Table D, Compound 1 alone 0.0001 ppm): 0%; Test I Obsd ([4]; Table D, Compound 1 alone 0.001 ppm): 80%; Test I Obsd ([4]; Table D, Compound 1 alone 0.01 ppm): 93%; Test I Obsd ([4]; Table D, Compound 1 alone 0.1 ppm): 100% |
| CCCCCCCCc1c(CC)nc2ncnn2c1N [Ametoctradin, ametoctradin] | – | 0 | 0 | 0 | 26 | 95 | 0 | 0 | 0 | 0 | 0 | 8 | 23 | 63 | 83 | 83 | 9 | 0 | 0 | 94 | Test I Obsd ([4]; Table D, component (b) alone 40 ppm): 93% |
| Cc1cc(C(F)(F)F)nn1CC(=O)N1CCC(c2nc(C3=NOC(c4c(F)cccc4F)C3)cs2)CC1 (racemic) [polymorph Form B, 1-[4-[4-[5-(2,6-difluorophenyl)-4,5-dihydro-3-isoxazolyl]-2-thiazolyl]-1-piperidinyl]-2-[5-methyl-3-(trifluoromethyl)-1H-pyrazol-1-yl]ethanone] | – | – | – | – | – | – | – | – | – | – | – | – | – | – | – | – | – | – | – | – | relative stability by heat of fusion rule from DSC data ([5]; DSC data of Characterization Example 3, forms monotropically related): most stable form throughout the temperature range up to the melt; relative stability, competitive interconversion experiment ([5]; equal amounts of Forms A and B in saturated ethanol, room temperature, stirred 4 days, solids identified by XRPD): more stable than polymorph Form A; physical stability by XRPD ([1]; exposed to 85% relative humidity at ambient temperature (10 days)): unchanged; physical stability by XRPD ([1]; maintained at 40° C. and 25° C. for 4 days): remained unchanged |
